Reference: US7049344B2 (Wilex Biotechnology GmbH, priority 2000, dated 2006)
Where a name gives a salt, the structure may show the parent alone. One block for each compound: values may come before it.

What was measured:
Thrombin = Thrombin (UniProt P00735); experiment: In-vitro protease inhibition, chromogenic substrate, Dixon Ki; type: biochemical; settings: 25° C, pH 8.0; read-out: K1 Thrombin
Protocol: (§1) The uPA inhibitor activity was determined by incubating 200 μl of Tris buffer (0.05 mol/l, containing the inhibitor, 0.154 mol/l NaCl, 5% ethanol, pH 8.0), 25 μl of substrate (Pefachrome UK or BZ-β-Ala-Gly-Arg-pNA in H2O; Pentapharm Ltd, Basle, Switzerland) and 50 μl of sc-urokinase (Ribosepharm GmbH, Haan, Germany) or another corresponding protease at 25° C. After 3 min, the reaction was interrupted by adding 25 μl of acetic acid (50%) and absorbance at 405 nm was determined by means of a microplate reader (MR 5000, Dynatech, Denkendorf, Germany). The Ki values were determined by linear regression according to Dixon by means of a computer program. The Ki values are the average of at least three determinations, and the standard deviation was below 25%.

Plasmin = Plasmin (Homo sapiens, UniProt P00747); experiment: as above; type: biochemical; settings: 25° C, pH 8.0; read-out: K1 Plasmin
Protocol: as §1

Trypsin = molecular target: T1, Trypsin (UniProt P00760); experiment: as above; type: biochemical; settings: 25° C, pH 8.0; read-out: K1 Trypsin
T1 sequence (P00760 1-246): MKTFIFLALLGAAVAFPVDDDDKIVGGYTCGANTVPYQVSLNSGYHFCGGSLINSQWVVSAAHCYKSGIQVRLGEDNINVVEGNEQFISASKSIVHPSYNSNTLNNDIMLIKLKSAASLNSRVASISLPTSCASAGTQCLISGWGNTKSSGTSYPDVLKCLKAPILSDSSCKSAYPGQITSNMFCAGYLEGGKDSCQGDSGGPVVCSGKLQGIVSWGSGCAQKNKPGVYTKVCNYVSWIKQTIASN
Protocol: as §1

FXA = FXA (UniProt P00743); experiment: as above; type: biochemical; settings: 25° C, pH 8.0; read-out: K1 FXA
Protocol: as §1

uPA (sc-urokinase) = molecular target: T2, uPA (sc-urokinase) (Homo sapiens, UniProt P00749); experiment: In-vitro inhibition of urokinase, chromogenic substrate, Dixon Ki; type: biochemical; settings: 25° C, pH 8.0; average of at least three determinations; read-out: K1 uPA
T2 construct: purchased Ribosepharm GmbH, Haan, Germany
Protocol: as §1

[1] = system: rat breast adenocarcinoma cells; settings: after i.v. inoculation of rat breast adenocarcinoma cells; cited from earlier work
rat prostate cancer = settings: syngeneic model of rat prostate cancer; cited from earlier work
mouse breast cancer = settings: cited from earlier work
[2] = system: DU145 tumors (a prostate adenocarcinoma cell line); settings: SCID mice, oral, daily dose of 125 to 250 mg/kg/day; cited from earlier work

Sequence of Plasmin (P00747 581-810 limits assumed, species assumed): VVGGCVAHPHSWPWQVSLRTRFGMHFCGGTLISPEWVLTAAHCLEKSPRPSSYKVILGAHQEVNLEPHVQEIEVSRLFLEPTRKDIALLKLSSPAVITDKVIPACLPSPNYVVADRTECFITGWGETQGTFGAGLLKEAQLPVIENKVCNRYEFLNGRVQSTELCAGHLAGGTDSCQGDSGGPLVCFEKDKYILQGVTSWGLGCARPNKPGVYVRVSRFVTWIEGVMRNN
Sequence of Plasmin (P00747 97-580 partner limits assumed, species assumed): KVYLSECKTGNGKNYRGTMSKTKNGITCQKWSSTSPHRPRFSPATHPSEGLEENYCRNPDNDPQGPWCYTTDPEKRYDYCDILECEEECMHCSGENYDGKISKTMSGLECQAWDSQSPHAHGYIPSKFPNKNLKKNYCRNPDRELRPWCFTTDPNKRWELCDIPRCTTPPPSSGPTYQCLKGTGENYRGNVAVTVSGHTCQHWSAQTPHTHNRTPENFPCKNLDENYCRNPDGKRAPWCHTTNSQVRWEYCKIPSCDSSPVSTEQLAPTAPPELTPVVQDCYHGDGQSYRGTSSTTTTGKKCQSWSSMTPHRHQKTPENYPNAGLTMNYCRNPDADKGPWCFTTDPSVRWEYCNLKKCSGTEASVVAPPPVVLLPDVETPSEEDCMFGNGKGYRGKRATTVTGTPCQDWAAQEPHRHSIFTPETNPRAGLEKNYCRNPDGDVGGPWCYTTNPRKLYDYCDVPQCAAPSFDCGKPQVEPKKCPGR

SMILES: N=C(N)NC(=O)c1nc(Cl)c(N)nc1N [Amiloride]
formation of lung metastases [1]: prevents the formation of lung metastases

SMILES: N=C(N)c1cc2c(I)cccc2s1 [B428, 4-iodobenzo[b]thiophene-2-carboxamidine]
tumor growth and metastases formation (rat prostate cancer): decrease of tumor growth and metastases formation
primary tumor growth (mouse breast cancer; B428 administered together with the antiestrogen tamoxifen): further decrease in primary tumor growth
tumor growth and metastases formation (mouse breast cancer; syngeneic model of mouse breast cancer): decrease of tumor growth and metastases formation

SMILES: N=C(N)c1ccc(N)cc1 [p-Aminobenzamidine]
growth rate of DU145 tumors [2]: distinct decrease
side effects [2]: negligible

Other lines, results leading:

Ki (Thrombin): > 1000 µM
Ki (Plasmin): > 1000 µM
Ki (Trypsin): > 1000 µM
Ki (FXA): > 1000 µM
Ki (uPA (sc-urokinase)): 51 µM
SMILES: N=C(N)Nc1ccc(CNC(=O)[C@@H](CO)c2ccccc2)cc1 (racemic) [ST-390, N-(4-guanidinobenzyl)-D,L-tropamide Hydrochloride]

Ki (uPA (sc-urokinase)): < 1 µM
SMILES: N=C(N)Nc1ccc(CNC(=O)C(C(=O)OCc2ccccc2)C23CC4CC(CC(C4)C2)C3)cc1 (centres unmarked) [ST-100]

Ki (Thrombin): > 1000 µM
Ki (Plasmin): > 1000 µM
Ki (FXA): > 1000 µM
Ki (uPA (sc-urokinase)): 1.4 µM
SMILES: N=C(N)Nc1ccc(CNC(=O)C(C(=O)OCc2ccccc2)c2ccccc2)cc1 (centres unmarked) [ST-401, N-(4-guanidinobenzyl) 2-(benzyloxycarbonyl)-2-phenylacetamide hydrochloride]

Ki (uPA (sc-urokinase)): < 10 µM
SMILES: N=C(N)Nc1ccc(CNC(=O)C(C(=O)O)c2ccccc2)cc1 (centres unmarked) [ST-406, N-(4-guanidinobenzyl) 2-(hydroxycarbonyl)-2-phenylacetamide Hydrochloride]
